{
  "source": "the supplement of paper PMC10307832",
  "assay_in_all_cases": "relative viability (nuclei count vs DMSO), 5 days (fraction); higher = more cells survive",
  "key": {"[1]": {"compound": "C1=CC2=C(C=C(C(=C2N=C1)O)N=NC3=CC4=C(C=C3)C=C(C=C4)S(=O)(=O)O)S(=O)(=O)O + CC(=O)c1c(C)c2cnc(Nc3ccc(N4CCNCC4)cn3)nc2n(C2CCCC2)c1=O [Palbociclib] (partner 0.5 µM)", "method_in_brief": "(§1)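 Lung cancer cell lines were pin-tool dosed in 1536-well plates on the day after seeding, with either a lone drug or a fixed anchor-drug dose plus five library-drug doses (not always all listed) in √10 steps. Nuclei were counted on 4× images after 5 days. Relative viability is the ratio of treated-well to vehicle-well nuclei counts, with each value a median of duplicate plates.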"}, "[2]": {"compound": "C1=CC2=C(C=C(C(=C2N=C1)O)N=NC3=CC4=C(C=C3)C=C(C=C4)S(=O)(=O)O)S(=O)(=O)O + CS(=O)(=O)CCNCc1ccc(-c2ccc3ncnc(Nc4ccc(OCc5cccc(F)c5)c(Cl)c4)c3c2)o1 [Lapatinib] (partner 2 µM)", "method_in_brief": "as §1"}, "AT-7519 + Luminespib": {"compound": "O=C(NC1CCNCC1)c1n[nH]cc1NC(=O)c1c(Cl)cccc1Cl [AT-7519] + CCNC(=O)c1noc(-c2cc(C(C)C)c(O)cc2O)c1-c1ccc(CN2CCOCC2)cc1 [Luminespib] (partner 0.01 µM)", "method_in_brief": "as §1"}, "AT-7519 + Tozasertib": {"compound": "O=C(NC1CCNCC1)c1n[nH]cc1NC(=O)c1c(Cl)cccc1Cl [AT-7519] + Cc1cc(Nc2cc(N3CCN(C)CC3)nc(Sc3ccc(NC(=O)C4CC4)cc3)n2)n[nH]1 [Tozasertib] (partner 0.1 µM)", "method_in_brief": "as §1"}},
  "data": [
    {"cell line": "UMC-11", "values": [
      {"measurement": "relative viability", "setting": "[1]; first compound 0.08 µM", "value": 0.325},
      {"measurement": "relative viability", "setting": "[1]; first compound 0.253 µM", "value": 0.329},
      {"measurement": "relative viability", "setting": "[1]; first compound 0.8 µM", "value": 0.326},
      {"measurement": "relative viability", "setting": "[1]; first compound 2.53 µM", "value": 0.339},
      {"measurement": "relative viability", "setting": "[1]; first compound 8 µM", "value": 0.324},
      {"measurement": "relative viability", "setting": "[2]; first compound 0.08 µM", "value": 1.07},
      {"measurement": "relative viability", "setting": "[2]; first compound 0.253 µM", "value": 0.969},
      {"measurement": "relative viability", "setting": "[2]; first compound 0.8 µM", "value": 0.889},
      {"measurement": "relative viability", "setting": "[2]; first compound 2.53 µM", "value": 1.02},
      {"measurement": "relative viability", "setting": "[2]; first compound 8 µM", "value": 0.716},
      {"measurement": "relative viability", "setting": "AT-7519 + Luminespib; first compound 0.01 µM", "value": 1.06},
      {"measurement": "relative viability", "setting": "AT-7519 + Luminespib; first compound 0.03162 µM", "value": 0.98},
      {"measurement": "relative viability", "setting": "AT-7519 + Luminespib; first compound 0.3162 µM", "value": 0.716},
      {"measurement": "relative viability", "setting": "AT-7519 + Luminespib; first compound 1 µM", "value": 0.394},
      {"measurement": "relative viability", "setting": "AT-7519 + Tozasertib; first compound 0.01 µM", "value": 0.223},
      {"measurement": "relative viability", "setting": "AT-7519 + Tozasertib; first compound 0.03162 µM", "value": 0.211},
      {"measurement": "relative viability", "setting": "AT-7519 + Tozasertib; first compound 0.3162 µM", "value": 0.278},
      {"measurement": "relative viability", "setting": "AT-7519 + Tozasertib; first compound 1 µM", "value": 0.219}
    ]}
  ]
}
